Results published in US20250270209A1 (INTERLINE THERAPEUTICS, INC., priority 2022, published 2025).

Columns and labels:
[1] = molecular target: T1, wild type LRRK2 overexpressed in recombinant HEK-293T cells (Homo sapiens, UniProt Q5S007); test: pS935 LRRK2 Cell Assay (HTRF, phospho-LRRK2 Ser935); format: cell-based; settings: LRRK2 Inhibition, Table 8, 2 hours compound incubation
T1 construct: host or cells: HEK293T (transient transfection with pCMV-LRRK2 WT plasmid)
Method in brief: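 Phospho-Ser935 LRRK2 measured by two-antibody HTRF (Eu-cryptate donor, d2 acceptor; 665/615 nm ratio) after overnight detection at 23° C. Before lysis, transiently LRRK2-transfected HEK-293T cells were exposed 2 h at 37° C to a 9-point, 3-fold series from 10 μM, with DMSO at 0.2%.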

LRRK2 wild type enzyme = LRRK2 wild type enzyme (Homo sapiens, UniProt Q5S007); test: Biochemical Assay: LRRK2 TR-FRET (LanthaScreen) kinase assay with LRRKtide substrate; settings: LRRK2 Inhibition, Table 8
Chain of LRRK2 wild type enzyme (Q5S007 whole entry): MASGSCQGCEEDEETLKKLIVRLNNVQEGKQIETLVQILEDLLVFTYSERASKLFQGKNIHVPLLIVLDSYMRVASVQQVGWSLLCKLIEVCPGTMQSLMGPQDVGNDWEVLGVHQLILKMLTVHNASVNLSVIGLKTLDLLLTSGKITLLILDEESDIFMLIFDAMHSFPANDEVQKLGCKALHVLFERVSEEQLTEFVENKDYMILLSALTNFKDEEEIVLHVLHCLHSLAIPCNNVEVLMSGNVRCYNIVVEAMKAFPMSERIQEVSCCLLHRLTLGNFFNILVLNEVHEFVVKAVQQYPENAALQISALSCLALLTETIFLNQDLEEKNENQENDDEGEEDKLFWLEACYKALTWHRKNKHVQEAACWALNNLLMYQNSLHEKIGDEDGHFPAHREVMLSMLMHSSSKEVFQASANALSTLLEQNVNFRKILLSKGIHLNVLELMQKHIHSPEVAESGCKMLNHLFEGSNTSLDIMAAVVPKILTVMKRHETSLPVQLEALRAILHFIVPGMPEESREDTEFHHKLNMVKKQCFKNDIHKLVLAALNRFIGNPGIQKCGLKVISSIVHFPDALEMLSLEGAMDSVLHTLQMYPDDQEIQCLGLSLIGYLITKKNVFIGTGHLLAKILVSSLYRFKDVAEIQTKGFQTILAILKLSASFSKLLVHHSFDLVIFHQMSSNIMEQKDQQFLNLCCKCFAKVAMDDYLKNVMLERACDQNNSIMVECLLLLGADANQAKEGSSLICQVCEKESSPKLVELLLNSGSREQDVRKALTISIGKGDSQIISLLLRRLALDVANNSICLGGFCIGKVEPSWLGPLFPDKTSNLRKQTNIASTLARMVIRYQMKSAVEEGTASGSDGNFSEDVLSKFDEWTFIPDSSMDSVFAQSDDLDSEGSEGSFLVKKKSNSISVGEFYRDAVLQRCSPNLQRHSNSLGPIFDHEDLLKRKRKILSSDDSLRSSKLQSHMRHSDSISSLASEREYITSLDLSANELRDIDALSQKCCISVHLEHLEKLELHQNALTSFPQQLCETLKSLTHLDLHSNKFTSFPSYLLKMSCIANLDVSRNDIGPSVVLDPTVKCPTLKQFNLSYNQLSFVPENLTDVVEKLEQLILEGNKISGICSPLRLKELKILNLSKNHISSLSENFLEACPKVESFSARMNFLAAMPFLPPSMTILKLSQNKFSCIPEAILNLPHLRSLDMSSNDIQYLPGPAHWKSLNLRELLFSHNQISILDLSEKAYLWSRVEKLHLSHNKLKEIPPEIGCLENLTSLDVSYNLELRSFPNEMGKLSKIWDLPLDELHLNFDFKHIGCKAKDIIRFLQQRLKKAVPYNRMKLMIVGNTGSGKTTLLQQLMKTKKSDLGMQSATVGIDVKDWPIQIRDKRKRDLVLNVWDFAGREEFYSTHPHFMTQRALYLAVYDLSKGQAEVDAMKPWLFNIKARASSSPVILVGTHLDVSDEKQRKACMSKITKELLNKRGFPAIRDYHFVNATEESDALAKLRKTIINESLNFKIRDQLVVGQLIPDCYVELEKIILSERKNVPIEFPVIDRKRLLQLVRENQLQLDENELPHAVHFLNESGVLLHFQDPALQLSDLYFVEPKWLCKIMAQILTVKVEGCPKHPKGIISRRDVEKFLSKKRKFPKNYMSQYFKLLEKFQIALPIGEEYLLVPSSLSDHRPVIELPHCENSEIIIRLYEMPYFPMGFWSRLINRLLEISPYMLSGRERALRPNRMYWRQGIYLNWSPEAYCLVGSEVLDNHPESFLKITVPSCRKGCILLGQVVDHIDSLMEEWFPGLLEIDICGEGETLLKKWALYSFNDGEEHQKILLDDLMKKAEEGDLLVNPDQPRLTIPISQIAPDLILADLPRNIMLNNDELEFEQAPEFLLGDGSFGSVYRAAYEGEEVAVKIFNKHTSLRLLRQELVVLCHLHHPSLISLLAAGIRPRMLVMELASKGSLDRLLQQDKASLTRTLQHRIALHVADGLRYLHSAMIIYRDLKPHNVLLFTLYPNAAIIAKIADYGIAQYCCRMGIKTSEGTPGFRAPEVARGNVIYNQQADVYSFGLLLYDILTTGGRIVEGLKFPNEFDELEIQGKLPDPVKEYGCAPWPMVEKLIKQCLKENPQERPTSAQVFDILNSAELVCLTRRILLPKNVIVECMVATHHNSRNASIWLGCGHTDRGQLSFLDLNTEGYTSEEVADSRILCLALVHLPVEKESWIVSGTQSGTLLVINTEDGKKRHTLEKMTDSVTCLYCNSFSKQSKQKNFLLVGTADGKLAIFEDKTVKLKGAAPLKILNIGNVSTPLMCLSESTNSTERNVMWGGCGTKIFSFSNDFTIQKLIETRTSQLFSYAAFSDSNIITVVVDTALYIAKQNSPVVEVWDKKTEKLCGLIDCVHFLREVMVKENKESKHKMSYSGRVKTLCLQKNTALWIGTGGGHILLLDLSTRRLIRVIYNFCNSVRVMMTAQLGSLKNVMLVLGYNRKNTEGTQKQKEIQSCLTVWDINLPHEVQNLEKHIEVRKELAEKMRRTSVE
Method in brief: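 TR-FRET detection (Tb-labelled phospho-LRRKtide antibody, EDTA stop, 30 min) followed a 120 min, 23 °C reaction of 3 nM wild-type human LRRK2 with LRRKtide (400 nM) and ATP (25 μM) in Tris pH 8.0. Compounds: 11-point 3-fold series from 10 μM, 15 min enzyme preincubation.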

T1 sequence (Q5S007 whole entry): as above

Structure (SMILES): C[C@@H]1C[C@H](n2c(CC(=O)N[C@@H]3C[C@H]3F)nc3cnc4ccc(C#N)cc4c32)CCO1 [Compound 246, N-[(1R,2R)-2-fluorocyclopropyl]{3-[(2R,4R)-2-methyltetrahydro-2H-pyran-4-yl]-12-cyano-3,5,8-triazatricyclo[7.4.0.0^2,6]trideca-1(13),2(6),4,7,9,11-hexaen-4-yl}acetamide]
- IC50 [1]: 52.2 nM
- IC50 (LRRK2 wild type enzyme): 1.1 nM

Structure (SMILES): C[C@@H]1C[C@H](n2c(CC(=O)NCc3cnccn3)nc3cnc4ccc(Cl)cc4c32)CCO1 [Compound 150, 2-{8-chloro-1-[(2R,4R)-2-methyloxan-4-yl]-1H-imidazo[4,5-c]quinolin-2-yl}-N-[(pyrazin-2-yl)methyl]acetamide]
- IC50 [1]: 7.19 nM
- IC50 (LRRK2 wild type enzyme): 0.47 nM

Structure (SMILES): C[C@@H]1C[C@H](n2c(CC(=O)Nc3ccncc3)nc3cnc4ccc(C#N)cc4c32)CCO1 [Compound 326, N-4-pyridyl{3-[(2R,4R)-2-methyltetrahydro-2H-pyran-4-yl]-12-cyano-3,5,8-triazatricyclo[7.4.0.0^2,6]trideca-1(9),2(6),4,7,10,12-hexaen-4-yl}acetamide]
- IC50 [1]: 4.86 nM
- IC50 (LRRK2 wild type enzyme): 0.492 nM

Structure (SMILES): C[C@@H]1C[C@H](n2c(C3CC(=O)N([C@@H](C)C4CC4)C3)nc3cnc4ccc(C#N)cc4c32)CCO1 (stereo partly drawn) [Compound 35, 2-{1-[(1S)-1-cyclopropylethyl]-5-oxopyrrolidin-3-yl}-1-[(2R,4R)-2-methyloxan-4-yl]-1H-imidazo[4,5-c]quinoline-8-carbonitrile]
- IC50 [1]: 179 nM
- IC50 (LRRK2 wild type enzyme): 2.98 nM

Structure (SMILES): N#Cc1ccc2ncc3nc(CC(=O)NCC4CC4)n(C4CCOCC4)c3c2c1 [Compound 343, N-cyclopropylmethyl{12-cyano-3-(tetrahydro-2H-pyran-4-yl)-3,5,8-triazatricyclo[7.4.0.0^2,6]trideca-1,4,6,8,10,12-hexaen-4-yl}acetamide]
- IC50 [1]: 135 nM
- IC50 (LRRK2 wild type enzyme): 2.81 nM

Structure (SMILES): C[C@@H]1C[C@H](n2c(CC(=O)Nc3cccnc3F)nc3cnc4ccc(C#N)cc4c32)CCO1 [Compound 317, N-(2-fluoro-3-pyridyl){3-[(2R,4R)-2-methyltetrahydro-2H-pyran-4-yl]-12-cyano-3,5,8-triazatricyclo[7.4.0.0^2,6]trideca-1(9),2(6),4,7,10,12-hexaen-4-yl}acetamide]
- IC50 [1]: 4.03 nM
- IC50 (LRRK2 wild type enzyme): 0.496 nM

Structure (SMILES): CC(=O)NCc1nc2cnc3ccc(C#N)cc3c2n1[C@@H]1CCO[C@H](C)C1 [Compound 23, N-({8-cyano-1-[(2R,4R)-2-methyloxan-4-yl]-1H-imidazo[4,5-c]quinolin-2-yl}methyl)acetamide]
- IC50 [1]: 659 nM
- IC50 (LRRK2 wild type enzyme): 4.74 nM

Structure (SMILES): CN1CC(n2c(CC(=O)NCC3CC3)nc3cnc4ccc(C#N)cc4c32)CCC1=O (single isomer, unassigned) [Compound 91]
- IC50 [1]: 6910 nM
- IC50 (LRRK2 wild type enzyme): 40.4 nM

Structure (SMILES): COc1ncc(NC(=O)Cc2nc3cnc4ccc(C#N)cc4c3n2[C@@H]2CCO[C@H](C)C2)c(OC)n1 [Compound 295, N-(2,4-dimethoxy-5-pyrimidinyl){3-[(2R,4R)-2-methyltetrahydro-2H-pyran-4-yl]-12-cyano-3,5,8-triazatricyclo[7.4.0.0^2,6]trideca-1,4,6,8,10,12-hexaen-4-yl}acetamide]
- IC50 [1]: 4.67 nM
- IC50 (LRRK2 wild type enzyme): 0.455 nM

Structure (SMILES): Cc1c(NC(=O)Cc2nc3cnc4ccc(C#N)cc4c3n2[C@@H]2CCO[C@H](C)C2)cnn1C [Compound 237, N-(1-methyl-5-methyl-4-pyrazolyl){3-[(2R,4R)-2-methyltetrahydro-2H-pyran-4-yl]-12-cyano-3,5,8-triazatricyclo[7.4.0.0^2,6]trideca-1,4,6,8,10,12-hexaen-4-yl}acetamide]
- IC50 [1]: 23.4 nM
- IC50 (LRRK2 wild type enzyme): 0.405 nM

Structure (SMILES): Cc1cccc(CNC(=O)Cc2nc3cnc4ccc(C#N)cc4c3n2[C@@H]2CCO[C@H](C)C2)n1 [Compound 152, 2-{8-cyano-1-[(2R,4R)-2-methyloxan-4-yl]-1H-imidazo[4,5-c]quinolin-2-yl}-N-[(6-methylpyridin-2-yl)methyl]acetamide]
- IC50 [1]: 3.4 nM
- IC50 (LRRK2 wild type enzyme): 0.318 nM

Structure (SMILES): Cc1ccc(CN2CC(c3nc4cnc5ccc(C#N)cc5c4n3[C@@H]3CCO[C@H](C)C3)CC2=O)cn1 (stereo partly drawn) [Compound 13, 1-[(2R,4R)-2-methyloxan-4-yl]-2-{1-[(6-methylpyridin-3-yl)methyl]-5-oxopyrrolidin-3-yl}-1H-imidazo[4,5-c]quinoline-8-carbonitrile]
- IC50 [1]: 180 nM
- IC50 (LRRK2 wild type enzyme): 1.19 nM

Structure (SMILES): C[C@@H]1C[C@H](n2c(CC(=O)Nc3cncnc3)nc3cnc4ccc(Cl)cc4c32)CCO1 [Compound 331, N-5-pyrimidinyl{3-[(2R,4R)-2-methyltetrahydro-2H-pyran-4-yl]-12-chloro-3,5,8-triazatricyclo[7.4.0.0^2,6]trideca-1(9),2(6),4,7,10,12-hexaen-4-yl}acetamide]
- IC50 [1]: 5.73 nM
- IC50 (LRRK2 wild type enzyme): 0.608 nM

Structure (SMILES): C[C@@H]1C[C@H](n2c(CC(=O)NC3CCc4cccnc43)nc3cnc4ccc(C#N)cc4c32)CCO1 (stereo partly drawn) [Compound 151, 2-{8-cyano-1-[(2R,4R)-2-methyloxan-4-yl]-1H-imidazo[4,5-c]quinolin-2-yl}-N-{5H,6H,7H-cyclopenta[b]pyridin-7-yl}acetamide]
- IC50 [1]: 23.3 nM
- IC50 (LRRK2 wild type enzyme): 0.55 nM

Structure (SMILES): C[C@@H]1C[C@H](n2c(CC(N)=O)nc3cnc4ccc(C#N)cc4c32)CCO1 [Compound 16, 2-{8-cyano-1-[(2R,4R)-2-methyloxan-4-yl]-1H-imidazo[4,5-c]quinolin-2-yl}acetamide]
- IC50 [1]: 146 nM
- IC50 (LRRK2 wild type enzyme): 1.15 nM

Structure (SMILES): C[C@@H]1C[C@H](n2c(CC(=O)Nc3cn(C)c(C(F)(F)F)cc3=O)nc3cnc4ccc(C#N)cc4c32)CCO1 [Compound 232, N-[1-methyl-4-oxo-6-(trifluoromethyl)-1,4-dihydro-3-pyridyl]{3-[(2R,4R)-2-methyltetrahydro-2H-pyran-4-yl]-12-cyano-3,5,8-triazatricyclo[7.4.0.0^2,6]trideca-1,4,6,8,10,12-hexaen-4-yl}acetamide]
- IC50 [1]: 36.9 nM
- IC50 (LRRK2 wild type enzyme): 0.788 nM

Structure (SMILES): C[C@@H]1C[C@H](n2c(CC(=O)NCC3CC3)nc3cnc4ccc(Cl)cc4c32)CCO1 [Compound 107, 2-{8-chloro-1-[(2R,4R)-2-methyloxan-4-yl]-1H-imidazo[4,5-c]quinolin-2-yl}-N-(cyclopropylmethyl)acetamide]
- IC50 [1]: 10.9 nM
- IC50 (LRRK2 wild type enzyme): 0.354 nM

Structure (SMILES): C[C@@H]1C[C@H](n2c(CC(=O)Nc3cccn(C)c3=O)nc3cnc4ccc(C#N)cc4c32)CCO1 [Compound 263, N-(1-methyl-2-oxo-1,2-dihydro-3-pyridyl){3-[(2R,4R)-2-methyltetrahydro-2H-pyran-4-yl]-12-cyano-3,5,8-triazatricyclo[7.4.0.0^2,6]trideca-1,4,6,8,10,12-hexaen-4-yl}acetamide]
- IC50 [1]: 8.93 nM
- IC50 (LRRK2 wild type enzyme): 0.476 nM

Structure (SMILES): Cc1oncc1CNC(=O)Cc1nc2cnc3ccc(C#N)cc3c2n1[C@@H]1CCO[C@H](C)C1 [Compound 179, 2-(8-cyano-1-((2R,4R)-2-methyltetrahydro-2H-pyran-4-yl)-1H-imidazo[4,5-c]quinolin-2-yl)-N-((5-methylisoxazol-4-yl)methyl)acetamide]
- IC50 [1]: 17.1 nM
- IC50 (LRRK2 wild type enzyme): 0.337 nM

Structure (SMILES): COc1cc(C2CC2)ncc1NC(=O)Cc1nc2cnc3ccc(C#N)cc3c2n1[C@@H]1CCO[C@H](C)C1 [Compound 213, N-(6-cyclopropyl-4-methoxy-3-pyridyl){3-[(2R,4R)-2-methyltetrahydro-2H-pyran-4-yl]-12-cyano-3,5,8-triazatricyclo[7.4.0.0^2,6]trideca-1,4,6,8,10,12-hexaen-4-yl}acetamide]
- IC50 [1]: 4.01 nM
- IC50 (LRRK2 wild type enzyme): 0.404 nM
